Measured values: patent US9428477B2, “Trans-2-decenoic acid derivative and drug containing same” (NIPPON ZOKI PHARMACEUTICAL CO., LTD., priority 2012, dated 2016)

How the values were obtained:
[1] = system: rats with paclitaxel-induced peripheral nerve disorder; test: Rat peripheral nerve disorder induced by paclitaxel, von Frey test; type: in vivo; settings: ip, test drug intraperitoneally, single dose, higher of values 1 and 5 hours after administration, mechanical stimulus of right hind limb, normal threshold 15, read-out: Recovery Rate of 50% Reaction Threshold Value
Experimental: The effects of the compounds of the present invention were evaluated for a peripheral nerve disorder which is a side effect induced by the administration of an anti-cancer agent paclitaxel, such as hyperesthesia including allodynia induced by mechanical stimuli, which is a severe pain induced by such tactile stimuli which usually cause no pains. The compound of the present invention was intraperitoneally administered to rats as a test drug to conduct a von Frey test.
Male SD rats of six weeks age (six rats per group) were used as experimental animals, and paclitaxel (2 mg/kg) was intraperitoneally administered every other day for four times in total to prepare rats with paclitaxel-induced peripheral nerve disorder. During the period of 18 to 25 days or during the period of 20 to 27 days after the initiation of paclitaxel administration, the test drug was intraperitoneally administered in a single dose of […], and the following von Frey test was conducted.
The rats of the above (1) were placed in a transparent acrylic cage with a wire-meshed floor and habituated for about three minutes, and the 50% reaction threshold values to the mechanical stimulus of right hind limb were measured before administration of the test drug and after 1 and 5 hours from the initiation of the administration.
The measurement was conducted using von Frey filaments (manufactured by North Coast Medical Inc.) in accordance with the methods of Chaplan, et al. (Journal of Neuroscience Methods, 53(1), 55-63, 1994) and Dixon, et al. (Annual Review of Pharmacology and Toxicology, 20, 441-462, 1980). […] The case where the rat escaped at the instance of removing the filament was also called positive. When the positive reaction was found, stimulus was applied similarly with a filament of one rank weaker, and in the absence of the reaction, stimulus was similarly applied with a filament of one rank stronger, and a point where the reaction changed from negative to positive or from positive to negative was called the first two reactions. Subsequently, stimuli were applied for continuously four times by the same up-down method. A 50% reaction threshold value to the mechanical stimulus was measured using the reaction to the six stimuli in total and then (mean value)±(standard error) for each group was calculated. Incidentally, when stimulus reached to a load of 15.0 g without positive reaction, or when positive reaction continued to a load of 0.4 g, 15.0 g or 0.25 g was adopted as each of 50% reaction threshold values. With regard to the higher 50% reaction threshold value between the 50% threshold values after 1 hour and 5 hours from administration of a test drug, a recovery rate (%) of the 50% reaction threshold value was calculated by the following expression in which 15 was taken as a normal threshold value.
Recovery rate (%) of 50% reaction threshold value=[(50% reaction threshold value after 1 hour or 5 hours from administration of test drug)−(50% reaction threshold value before administration of test drug)]/[(Normal threshold value)−(50% reaction threshold value before administration of test drug)]×100

MAP kinase (ERK1/2) = test: Activation (phosphorylation) of MAP kinase under mild stress loads, hippocampus of chronic mild stress-induced depression model mice; type: in vivo; settings: normal control 1.26±0.11, stress-loaded control 0.56±0.04
Experimental: As to the compounds of the present invention, the activation level of the MAP kinase (ERK1/2) was measured using chronic mild stress-induced depression model mice in the following manner. • (1) Preparation of Chronic Mild Stress-Induced Depression Model Mice and Administration of Test Drug
(§1) Female ddY mice of seven weeks age (n=8 to 12) were subjected to the following procedures: (A) The mice were subjected to forced swimming for 15 minutes, and then to normal breeding for two days. (B) The mice were subjected to breeding in an inclined cage for two days, and then to normal breeding for one day. (C) The mice were subjected to breeding for one day in a cage of which floor mat was made wet and then to normal breeding for one day. (D) The mice were subjected to breeding for one day with a cage rotating at a rate of 180 rotations/minute, and then to normal breeding for one day. Further, after one cycle of (A) to (D) was carried out, (B) to (D) were repeated for two cycles. As such, stress was applied over three weeks in total to prepare chronic mild stress-induced depression model mice. […]
Each of the MAP kinase (MAPK) and the phosphorylated MAP kinase (pMAPK) was subjected to immunoblot analysis, and 2 μg or 5 μg each of tissue-extracted proteins was subjected to electrophoresis. […] The staining intensity of each band was quantified, and a ratio of pMAPK to MAPK was obtained (n=4 to 7). […]

[2] = system: transcription factor CREB; test: Activation (phosphorylation) of CREB under mild stress loads, chronic mild stress-induced depression model mice; type: in vivo; settings: normal control 0.95±0.09, stress-loaded control 0.50±0.07
[3] = system: chronic mild stress-induced depression model mice; test: Tail suspension test, suppressive effects of depression symptoms accompanying mild stress loads; type: in vivo; settings: normal control 73.16±9.20, stress-loaded control 157.01±11.97
Experimental: as §1
The compounds of the present invention were administered as a test drug to the chronic mild stress-induced depression model mice of Test Example 3(1) mentioned above, and the model mice were then subjected to tail suspension test to evaluate suppressive effects of depression symptoms. […] The observations were made for 6 minutes, and the length of the immobility time, serving as an index of depression symptoms, was measured. […]

[4] = system: chronic mild stress-induced depression model mice; test: Light-dark test, suppressive effects of anxiety symptoms accompanying mild stress loads; type: in vivo; settings: normal control 110.74±5.29, stress-loaded control 74.72±4.09
Experimental: as §1, with “cycles.” for “cycles. As such, stress was applied over three weeks in total to prepare chronic mild stress-induced depression model mice.”
The compounds of the present invention were administered as a test drug to the chronic mild stress-induced depression model mice of Test Example 3(1) mentioned above, and the model mice were then subjected to light-dark test to evaluate suppressive effects of anxiety symptoms. Specifically, a wooden rectangular apparatus composed of a light chamber and a dark chamber having a height of 50 cm, a length of 50 cm, a width of 25 cm was used, a mouse was placed in a dark chamber and allowed to freely search, and then the number of times invading into a light chamber, and the time staying in the light chamber were recorded for 5 minutes. […]

[5] = 500 μg/kg orally once every day for three weeks
[6] = 1,000 μg/kg orally once every day for three weeks

SMILES: CCCCCCC/C=C/C(=O)N1CCC(N(C)C)CC1 [Compound 12, 1-((E)-2-decenoyl)-4-dimethylaminopiperidine]
- change in vivo at 0.3 mg/kg [1]: 49.7%
- ratio of pMAPK to MAPK (MAP kinase (ERK1/2); [5]): 1.09±0.04
- ratio of pCREB to CREB [2, 5]: 1.08±0.14
- immobility time ([3]; 6 minutes, 500 μg/kg): 69.26 ± 16.41 s
- staying time in the light chamber ([4]; 5 minutes, 500 μg/kg): 108.70 ± 12.06 s

SMILES: CCCCCCC/C=C/C(=O)N1CCC(C(=O)O)CC1 [Compound 10, 1-((E)-2-Decenoyl)piperidine-4-carboxylic acid]
- change in vivo at 0.3 mg/kg [1]: 44.6%
- ratio of pMAPK to MAPK (MAP kinase (ERK1/2); [6]): 1.00±0.04
- ratio of pCREB to CREB [2, 6]: 0.94±0.10
- immobility time ([3]; 6 minutes, 1,000 μg/kg): 96.03 ± 25.24 s
- staying time in the light chamber ([4]; 5 minutes, 1,000 μg/kg): 107.05 ± 8.29 s
- melting point: 88 to 89 °C
